Experimental data reported in patent publication US10478407B2, “Pharmaceutical composition for viral infections” (The Administrators of the Tulane Educational Fund, priority 2018, dated 2019).

Columns and labels:
[1] = tested on: Herpes simplex virus type 1, ATCC VR-733, Strain F(1); assay: Virucidal suspension test of solutions A-18 to D-18 against HSV-1, Vero indicator cells (Example 18); assay type: cell-based; conditions: for viral inhibitory effect: comparable concentrations
Description: (§1) A suspension of virus was exposed to the use dilutions of the products. At the end of the exposure time, an aliquot was removed, neutralized by serial dilution, and assayed for the presence of virus. The virus controls, cytotoxicity controls, and neutralization controls were assayed in parallel. Antiviral properties of the solutions were evaluated and compared at the specified concentrations and time intervals.
Dilutions: 1:5 defined as 1 ml test substance+4 parts sterile PBS=0.2 mg/ml
• 1:10 defined as 1 ml test substance+9 parts sterile PBS=0.1 mg/ml • 1:15 defined as 1 ml test substance+14 parts sterile PBS=0.07 mg/ml • 1:20 defined as 1 ml test substance+19 parts sterile PBS=0.05 mg/ml • 1:25 defined as 1 ml test substance+24 parts sterile PBS=0.04 mg/ml Virus: Herpes simplex virus type 1, ATCC VR-733, Strain F(1) Exposure Time: 30 minutes Exposure Temperature: Room temperature (22.0° C.) Organic Soil Load: 1% fetal bovine serum Test Medium: Minimum Essential Medium (MEM) supplemented with 5% (v/v) heat-inactivated fetal bovine serum (FBS), […], 100 units/ml penicillin, and 2.5 μg/ml amphotericin B. Indicator Cell Cultures: Vero Results
A similar experiment was run with 15 minutes contact time. The graphical representation can be seen in FIG. 6.

[2] = tested on: Herpes simplex virus type 1, ATCC VR-733, Strain F(1); assay: Virucidal suspension test of solutions A-17 and B-17 against HSV-1, Vero indicator cells (Example 17); assay type: cell-based
Description: as §1, with “each pre-determined” for “end of the”, “time” for “time,”
Dilutions: FS (undiluted) defined as 1 ml test substance+0 ml PBS
• 1:10 defined as 1 ml test substance+9 ml PBS • 1:100 defined as 1 ml of the 1:10 dilution+9 ml PBS Virus: Herpes simplex virus type 1, ATCC VR-733, Strain F(1) Exposure Time: 15 minutes and 60 minutes Exposure Temperature: Room temperature (22.0° C.) Organic Soil Load: 1% fetal bovine serum Test Medium: Minimum Essential Medium (MEM) supplemented with 5% (v/v) heat-inactivated fetal bovine serum (FBS), 10 μg/ml gentamicin, 100 units/ml penicillin, and 2.5 μg/ml amphotericin B. Indicator Cell Cultures: Vero Results

Ebola virus (Zaire 76) = conditions: 5 μg/ml; FIG. 17
[3] = dilution 1:5 = 0.2 mg/ml, 30 minutes exposure, 22.0° C.
[4] = dilution 1:10 = 0.1 mg/ml, 30 minutes exposure
[5] = dilution 1:15 = 0.07 mg/ml, 30 minutes exposure
[6] = dilution 1:20 = 0.05 mg/ml, 30 minutes exposure
[7] = dilution 1:25 = 0.04 mg/ml, 30 minutes exposure
[8] = FS (undiluted), 15 minutes exposure, 22.0° C., stock A-17 1 mg/mL, B-17 10 mg/mL
[9] = FS (undiluted), 60 minutes exposure
[10] = dilution 1:10, 15 minutes exposure
[11] = dilution 1:10, 60 minutes exposure
[12] = dilution 1:100, 15 minutes exposure
[13] = dilution 1:100, 60 minutes exposure
[14] = 15 minutes contact time, FIG. 6

## C14-alkyl(ethylbenzyl) dimethylammonium chloride [Formulation B-18]
[1]; [3]
  % Reduction: 94.4%
  Log10 Reduction: 1.24 log10
[1]; [4]
  % Reduction: 43.8%
  Log10 Reduction: 0.25 log10
[1]; [5]
  % Reduction: No Reduction
  Log10 Reduction: No Reduction
[1]; [6]
  % Reduction: No Reduction
  Log10 Reduction: No Reduction
[1]; [7]
  % Reduction: No Reduction
  Log10 Reduction: No Reduction

## benzalkonium chloride [Formulation B-17]
[2]; [8]
  % reduction in viral titer: ≥ 99.99%
  log10 reduction in viral titer: ≥ 4.00 log10
[2]; [9]
  % reduction in viral titer: ≥ 99.98%
  log10 reduction in viral titer: ≥ 3.75 log10
[2]; [10]
  % reduction in viral titer: ≥ 99.999%
  log10 reduction in viral titer: ≥ 5.00 log10
[2]; [11]
  % reduction in viral titer: ≥ 99.998%
  log10 reduction in viral titer: ≥ 4.75 log10
[2]; [12]
  % reduction in viral titer: 90.0%
  log10 reduction in viral titer: 1 log10
[2]; [13]
  % reduction in viral titer: 99.7%
  log10 reduction in viral titer: 2.5 log10

## benzalkonium chloride [Formulation C-18, reference compound]
[1]; [14]
  viral inhibitory effect: no viral inhibitory effect
[1]; [3]
  % Reduction: 43.8%
  Log10 Reduction: 0.25 log10
[1]; [4]
  % Reduction: No Reduction
  Log10 Reduction: No Reduction
[1]; [5]
  % Reduction: No Reduction
  Log10 Reduction: No Reduction
[1]; [6]
  % Reduction: No Reduction
  Log10 Reduction: No Reduction
[1]; [7]
  % Reduction: No Reduction
  Log10 Reduction: No Reduction

## C12-alkyl(ethylbenzyl) dimethylammonium chloride
Ebola virus (Zaire 76)
  deactivation of Ebola virus: Complete deactivation

## C12-alkyl(ethylbenzyl) dimethylammonium chloride [Formulation A-18]
[1]; [14]
  % Reduction: 99.997%
  log10 reduction: 6.75 log10
  viral inhibitory effect: complete inactivation
[1]; [3]
  % Reduction: ≥99.997%
  Log10 Reduction: ≥4.5 log10
[1]; [4]
  % Reduction: 99.4%
  Log10 Reduction: 2.25 log10
[1]; [5]
  % Reduction: 98.2%
  Log10 Reduction: 1.75 log10
[1]; [6]
  % Reduction: 96.8%
  Log10 Reduction: 1.5 log10
[1]; [7]
  % Reduction: 90.0%
  Log10 Reduction: 1 log10
